Experimental data published in patent publication US5604226A, “Pyridazinone derivatives, processes for production thereof and use thereof” (Nihon Nohyaku Co., Ltd., priority 1993, dated 1997).

Legend:
[1] = test system: Platelet aggregation (ADP, rabbit platelet rich plasma); experiment: Platelet aggregation inhibition in rabbit PRP, ADP-induced, Born's turbidimetry (Experiment 1); format: cell-based; conditions: Oryctolagus cuniculus, 0.05 h, ADP 2 to 4 μM, 3 min incubation, read-out: Aggregation Inhibition Rate
Protocol: Blood was collected from the ear vein of rabbit, together with 1/10 volume sodium citrate. Centrifugation at 1,200 rpm for 10 minutes gave the supernatant which was made platelet rich plasma (PRP). The blood was further centrifuged at 3,000 rpm for 10 minutes to give platelet poor plasma (PPP). The platelet count of PRP was adjusted to 300,000/μl with PPP, which was provided for the test. Platelet aggregation was determined with aggregometer (HEMATRACERVI, Niko Bioscience Co.) based on Born's turbidimetry. That is, 200 μl of PRP was charged in a cell and 1 μl of a drug solution dissolved in dimethylsulfoxide was added thereto. After incubation for 3 minutes, ADP was added in a concentration of 2 to 4 μM to cause aggregation. Change in transmittance in the cell was then monitored. The results are shown in Table 2, in terms of aggregation inhibition rate which was determined by comparing a transmittance of control with that obtained at the maximum aggregation on an aggregation curve when the transmittance of PRP was made 0% and the transmittance of PPP was made 100%.

[2] = test system: thrombocytopenia in mice (collagen-induced, platelet count); experiment: Activity of preventing thrombocytopenia in mice, collagen i.v. (Experiment 3); format: in vivo, male ddY mice; conditions: Mus musculus, 3.0 mg/kg oral, 1 hour before collagen 0.5 mg/kg i.v., * p = 5%, ** p = 1%, *** p = 0.1%, read-out: Average Inhibition Rate (platelet count; normal mouse 100, control mouse 0)
Protocol: Activity of preventing thrombocytopenia in mice:
Collagen (Holm Co.) diluted with physiological saline was intravenously given through the vein to male ddY mice of 6 weeks old, weighing 28-31 g, which had been fasted for 4-5 hours, in a dose of 0.5 mg/kg. Five minutes after, blood was collected from the lower thigh vein under pentobarbital anesthesia through a plastic syringe treated with heparin containing 3.8% sodium citrate. The drug was orally given an hour before the collagen administration. The platelet count was measured with Sysmex E-4000. The inhibition activity is shown in terms of percentage of the platelet count when the platelet count of normal mouse was made 100 and the platelet count of control mouse was made 0.

[3] = test system: ADP-inducing platelet aggregation; experiment: Rabbit exo-vivo test, ADP-inducing platelet aggregation after oral administration (Experiment 2); format: in vivo, Japanese white rabbits
Protocol: Japanese white rabbits weighing 3.0-4.0 kg were fasted for 18 hours. A drug suspension in 2% gum arabic aqueous solution was orally given to the animal in a definite dose. Blood was collected 1 and 4 hours after. PRP was prepared in a manner similar to Experiment 1 and ADP-inducing platelet aggregation function was determined. An inhibition rate was calculated based on an aggregation rate of ADP prior to administration of the compound.

## COc1ccc(CNc2c(OCC[S+]([O-])c3ccccc3)n[nH]c(=O)c2Br)cc1OC (stereo not shown) [Compound 8, 4-bromo-5-(3,4-dimethoxyphenylmethylamino)-6-[2-(phenylsulfinyl)ethyloxy]-3(2H)-pyridazinone]
[1]; 10^-6 g/ml
  inhibition at 1 µg/mL: 100%
[1]; 10^-7 g/ml
  inhibition at 0.1 µg/mL: 82%
[2]
  inhibition in vivo at 3 mg/kg: 45%
[3]; 3 mg/kg oral, 1 Hour
  Average Inhibition Rate: 48%
[3]; 3 mg/kg oral, 4 Hours
  Average Inhibition Rate: 23%
[3]; 30 mg/kg oral, 1 Hour
  Average Inhibition Rate: 72%
[3]; 30 mg/kg oral, 4 Hours
  Average Inhibition Rate: 70%
